Several values for one entry are separate records, joined by “and”; a condition that tells them apart may be missing. Equal entries are not always repeated.
Legend:
Conditions in all cases: treatment: drug alone; 5 days
769-P [1] = experiment: GI50, drug alone; higher = less potent
Method: (§1)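 Primary HTS: 8 RCC cell lines treated with 8 doses (up to 10 uM) of each library drug alone for 5 days; viability read by CellTiter-Glo and normalised to DMSO. GI50 was fitted with XLfit (4-parameter), AUC is the area under the dose-response curve, and minimum viability is the lowest fraction of DMSO viability across doses.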

786-O [2] = experiment: GI50, drug alone; higher = less potent
Method: as §1

A498 [3] = experiment: GI50, drug alone; higher = less potent
Method: as §1

ACHN [4] = experiment: GI50, drug alone; higher = less potent
Method: as §1

CAKI-1 [5] = experiment: GI50, drug alone; higher = less potent
Method: as §1

SN12C [6] = experiment: GI50, drug alone; higher = less potent
Method: as §1

TK-10 [7] = experiment: GI50, drug alone; higher = less potent
Method: as §1

UO-31 [8] = experiment: GI50, drug alone; higher = less potent
Method: as §1

769-P [9] = experiment: minimum viability across doses, drug alone, relative to DMSO (fraction); higher = less growth inhibition
Method: as §1

786-O [10] = experiment: as above
Method: as §1

A498 [11] = experiment: as above
Method: as §1

ACHN [12] = experiment: as above
Method: as §1

CAKI-1 [13] = experiment: as above
Method: as §1

SN12C [14] = experiment: as above
Method: as §1

TK-10 [15] = experiment: as above
Method: as §1

UO-31 [16] = experiment: as above
Method: as §1

769-P [17] = experiment: AUC of dose-response viability curve, drug alone (arbitrary (AUC of normalised viability)); higher = less growth inhibition
Method: as §1

786-O [18] = experiment: as above
Method: as §1

A498 [19] = experiment: as above
Method: as §1

ACHN [20] = experiment: as above
Method: as §1

CAKI-1 [21] = experiment: as above
Method: as §1

SN12C [22] = experiment: as above
Method: as §1

TK-10 [23] = experiment: as above
Method: as §1

UO-31 [24] = experiment: as above
Method: as §1

SMILES	GI50, drug alone (786-O [2])	GI50, drug alone (ACHN [4])	GI50, drug alone (769-P [1])	GI50, drug alone (A498 [3])	GI50, drug alone (CAKI-1 [5])	GI50, drug alone (SN12C [6])	GI50, drug alone (TK-10 [7])	GI50, drug alone (UO-31 [8])	minimum viability across doses (769-P [9])	minimum viability across doses (786-O [10])	minimum viability across doses (A498 [11])	minimum viability across doses (ACHN [12])	minimum viability across doses (CAKI-1 [13])	minimum viability across doses (SN12C [14])	minimum viability across doses (TK-10 [15])	minimum viability across doses (UO-31 [16])	AUC of dose-response viability curve (769-P [17])	AUC of dose-response viability curve (786-O [18])	AUC of dose-response viability curve (A498 [19])	AUC of dose-response viability curve (ACHN [20])	AUC of dose-response viability curve (CAKI-1 [21])	AUC of dose-response viability curve (SN12C [22])	AUC of dose-response viability curve (TK-10 [23])	AUC of dose-response viability curve (UO-31 [24])
N#Cc1c(O)c2c(-c3ccc(-c4ccccc4O)cc3)csc2[nH]c1=O	> 10 µM	> 10 µM	> 10 µM	> 10 µM	> 10 µM	> 10 µM	> 10 µM	> 10 µM	0.963	0.823	0.9	0.904	0.977	0.868	0.929	0.948	3.7	3.47	3.53	3.45	3.65	3.39	3.6	4.14
O=C1NC(=O)/C(=C/c2ccc3nccnc3c2)S1	> 10 µM	> 10 µM	> 10 µM	> 10 µM	> 10 µM	> 10 µM	> 10 µM	> 10 µM	0.891	0.651	0.869	0.837	0.648	0.805	0.802	0.902	3.39	3.04	3.39	3.28	3.43	3.19	3.3	4.01
C[C@@H]1COC(Nc2ccc3ncnc(Nc4ccc(OCc5nccs5)c(Cl)c4)c3c2)=N1	> 10 µM	1.88 µM	4.05 µM	> 10 µM	9.75 µM	> 10 µM	2.21 µM	> 10 µM	0.431	0.5	1.1	0.433	0.478	0.76	0.369	0.919	2.72	2.6	4.91	2.8	3.13	3.25	2.46	4.74
O=C1NC(=O)/C(=C/c2ccc3c(c2)OC(F)(F)O3)S1	> 10 µM	> 10 µM	> 10 µM	> 10 µM	> 10 µM	> 10 µM	> 10 µM	> 10 µM	0.947	0.474	0.83	0.93	0.98	0.775	0.858	0.92	3.5	2.35	3.81	3.46	3.54	3.07	3.24	4.4
Cc1cnc(Nc2ccc(N3CCN(C)CC3)cc2)nc1Nc1cccc(S(=O)(=O)NC(C)(C)C)c1	1.63 µM and 1.1 µM	0.394 µM and 0.247 µM	3.64 µM and 1.86 µM	8.98 µM and 9.2 µM	0.523 µM and 0.493 µM	2.19 µM and 1.47 µM	0.596 µM and 0.364 µM	3.06 µM and 2.23 µM	0.0716 and 0.0287	0.011 and 0.00951	0.19 and 0.161	0.00241 and 0.0043	–	–	0.00169 and 0.00288	0.0126 and 0.00902	2.9 and 2.62	2.78 and 2.6	3.84 and 4.19	2.1 and 1.82	2.2 and 2.24	2.78 and 2.61	2.15 and 1.95	3.84 and 3.52
Cc1ccc(C(=O)Nc2ccc(CN3CCN(C)CC3)c(C(F)(F)F)c2)cc1C#Cc1cnc2cccnn12	0.936 µM	0.327 µM	2.21 µM	2.09 µM	0.486 µM	0.942 µM	0.531 µM	1.25 µM	–	–	–	–	–	–	–	–	–	–	–	–	–	–	–	–
CCS(=O)(=O)N1CC(CC#N)(n2cc(-c3ncnc4[nH]ccc34)cn2)C1	> 10 µM	> 10 µM	> 10 µM	> 10 µM	> 10 µM	> 10 µM	> 10 µM	> 10 µM	0.953	0.619	1.07	0.758	0.926	0.885	0.817	1.11	3.62	3.07	4.43	3.17	3.58	3.36	3.09	4.72
CN(C[C@@H]1COCCO1)S(=O)(=O)Nc1ccc2ccc3ncc(-c4cnn(C)c4)cc3c(=O)c2c1 [MK-2461]	> 10 µM	1.72 µM	> 10 µM	> 10 µM	1.12 µM	> 10 µM	> 10 µM	> 10 µM	0.772	0.653	0.968	0.217	0.0916	0.727	0.649	1.03	3.6	5.52	7.41	2.6	2.48	3.09	2.8	–
Nc1ccc(-c2ccc3ncc4ccc(=O)n(-c5cccc(C(F)(F)F)c5)c4c3c2)cn1 [Torin 2]	0.00639 µM	0.00967 µM	0.0398 µM	0.0354 µM	0.0322 µM	0.0203 µM	–	0.012 µM	0.0587	0.00282	0.0258	0.0442	0.0161	0.0362	0.0151	0.0112	1.2	0.512	1.25	0.678	1.07	1.02	0.982	0.591

Further lines, with some results ahead:

GI50, drug alone (786-O [2])	GI50, drug alone (ACHN [4])	SMILES	GI50, drug alone (769-P [1])	GI50, drug alone (A498 [3])	GI50, drug alone (CAKI-1 [5])	GI50, drug alone (SN12C [6])	GI50, drug alone (TK-10 [7])	GI50, drug alone (UO-31 [8])	minimum viability across doses (769-P [9])	minimum viability across doses (786-O [10])	minimum viability across doses (A498 [11])	minimum viability across doses (ACHN [12])	minimum viability across doses (CAKI-1 [13])	minimum viability across doses (SN12C [14])	minimum viability across doses (TK-10 [15])	minimum viability across doses (UO-31 [16])	AUC of dose-response viability curve (769-P [17])	AUC of dose-response viability curve (786-O [18])	AUC of dose-response viability curve (A498 [19])	AUC of dose-response viability curve (ACHN [20])	AUC of dose-response viability curve (CAKI-1 [21])	AUC of dose-response viability curve (SN12C [22])	AUC of dose-response viability curve (TK-10 [23])	AUC of dose-response viability curve (UO-31 [24])
0.0969 µM	0.267 µM	CCCCOc1c(C(=O)c2c(F)cc(C)cc2F)cnc2[nH]ncc12	> 10 µM	> 10 µM	> 10 µM	> 10 µM	2.45 µM	0.984 µM	0.562	0.0155	0.575	0.198	0.745	0.564	0.47	0.00742	2.95	1.46	3.32	1.93	3.12	2.98	2.35	3.45
> 10 µM	8.82 µM	CCOc1ccn(-c2ccc(F)cc2)c(=O)c1C(=O)Nc1ccc(Oc2ccnc(N)c2Cl)c(F)c1	> 10 µM	> 10 µM	> 10 µM	> 10 µM	> 10 µM	> 10 µM	0.817	0.503	0.87	0.443	0.47	0.75	0.665	0.722	3.17	2.3	3.52	3.06	2.99	3.14	2.99	4.18
> 10 µM	> 10 µM	O=C1NC(=O)/C(=C/c2ccc(-c3ccc(F)cc3O)o2)S1	> 10 µM	> 10 µM	> 10 µM	> 10 µM	> 10 µM	4.73 µM	0.905	0.694	1.21	0.872	0.955	0.917	0.853	0.244	3.41	2.68	4.49	3.49	3.51	3.48	3.25	4.02
> 10 µM	4.1 µM	Cc1c(NC(=O)OC[C@@H]2COCCN2)cn2ncnc(Nc3ccc4c(cnn4Cc4cccc(F)c4)c3)c12.Cl	5.19 µM	> 10 µM	> 10 µM	> 10 µM	1.94 µM	> 10 µM	0.368	0.592	0.861	0.419	0.573	0.677	0.234	0.929	2.92	3.22	3.52	2.75	3.17	3.22	2.53	4.06
> 10 µM	> 10 µM	Cc1cc2c(F)c(Oc3ncnn4cc(OC[C@@H](C)O)c(C)c34)ccc2[nH]1	> 10 µM	> 10 µM	8.98 µM	> 10 µM	> 10 µM	9.55 µM	0.901	0.668	1.09	0.628	0.427	0.909	0.733	0.457	3.39	3.09	4.21	3.04	3.4	3.28	3.23	4.46
> 10 µM	2.67 µM	CN(C)Cc1cccc(N/C(=C2\C(=O)Nc3cc(C(=O)N(C)C)ccc32)c2ccccc2)c1	> 10 µM	> 10 µM	4 µM	8.69 µM	9.6 µM	9.91 µM	0.867	0.524	1.14	0.127	0.12	0.382	0.481	0.605	3.43	2.81	4.62	2.8	3.08	3.05	2.94	4.64
0.247 µM	0.56 µM	O=C(NC[C@H](O)CO)c1ccncc1Nc1ccc(I)cc1F	1.14 µM	> 10 µM	0.654 µM	5.97 µM	0.715 µM	9.22 µM	0.268	0.292	0.687	0.273	0.203	0.409	0.282	0.367	2.44	1.84	4.02	2.11	2.27	2.62	2.12	4.06
0.879 µM	0.667 µM	Cc1n[nH]c2ccc(-c3cncc(OC[C@@H](N)Cc4ccccc4)c3)cc12	2.01 µM	1.16 µM	1.22 µM	1.43 µM	1.39 µM	0.887 µM	0.0141	0.00649	0.0113	0.00528	0.073	0.00861	0.141	0.00834	2.74	2.19	2.46	2.28	2.6	2.55	2.54	2.35
> 10 µM	> 10 µM	Nc1nccc(Oc2ccc(NC(=O)c3c[nH]cc(-c4ccc(F)cc4)c3=O)cc2F)c1Cl	> 10 µM	> 10 µM	> 10 µM	> 10 µM	> 10 µM	3.8 µM	0.951	0.607	0.973	0.649	0.716	0.711	0.689	0.00247	3.52	2.73	4.08	3.5	3.45	3.25	2.97	4.74
